Test system: HCT116 colorectal cancer cells
Experiment: Cisplatin sensitization assay (96 h cell viability MTS);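 also: compound concentration needed to lower the Cisplatin-alone IC50 by a set fold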
Type: cell-based
Conditions: 96 h MTS, compound plus Cisplatin
Method in brief: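 Cisplatin and compound are dosed at the same time, both serially diluted 2-fold from 10 μM final across a full matrix. Plates sit at 37° C in 5% CO2 for 96 h before MTS addition.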

| Structure (SMILES) | Cisplatin Sensitization Assay |
| --- | --- |
| Nc1nn2cc(F)cnc2c1C(=O)Nc1cncc(F)c1N1CCC(S(=O)(=O)N2CCOCC2)CC1 [I-N-155, 2-amino-6-fluoro-N-(5-fluoro-4-(4-(morpholinosulfonyl)piperidin-1-yl)pyridin-3-yl)pyrazolo[1,5-a]pyrimidine-3-carboxamide] | +++ (Compounds with a Cisplatin sensitization value of <0.02 μM are marked with “+++.”) |
| CN1CCC(C(=O)N2CCN(c3c(F)cncc3NC(=O)c3c(N)nn4cc(F)cnc34)CC2)C1 (stereo not shown) [I-N-156, 2-amino-6-fluoro-N-(5-fluoro-4-(4-(1-methylpyrrolidine-3-carbonyl)piperazin-1-yl)pyridin-3-yl)pyrazolo[1,5-a]pyrimidine-3-carboxamide] | +++ (Compounds with a Cisplatin sensitization value of <0.02 μM are marked with “+++.”) |
| CN1CCC[C@H]1C(=O)N1CCN(c2c(F)cncc2NC(=O)c2c(N)nn3cc(F)cnc23)CC1 [I-N-157, (S)-2-amino-6-fluoro-N-(5-fluoro-4-(4-(1-methylpyrrolidine-2-carbonyl)piperazin-1-yl)pyridin-3-yl)pyrazolo[1,5-a]pyrimidine-3-carboxamide] | ++ (Compounds with a Cisplatin sensitization value >0.02 μM but <0.2 μM are marked with “++.”) |
| Nc1nn2cc(F)cnc2c1C(=O)Nc1cncc(F)c1N1CCN(S(=O)(=O)C2CCOCC2)CC1 [I-N-158, 2-amino-6-fluoro-N-(5-fluoro-4-(4-((tetrahydro-2H-pyran-4-yl)sulfonyl)piperazin-1-yl)pyridin-3-yl)pyrazolo[1,5-a]pyrimidine-3-carboxamide] | +++ (Compounds with a Cisplatin sensitization value of <0.02 μM are marked with “+++.”) |
| Nc1nn2cc(F)cnc2c1C(=O)Nc1cncc(F)c1N1CCN(S(=O)(=O)C2CC2)CC1 [I-N-159, 2-amino-N-(4-(4-(cyclopropylsulfonyl)piperazin-1-yl)-5-fluoropyridin-3-yl)-6-fluoropyrazolo[1,5-a]pyrimidine-3-carboxamide] | +++ (Compounds with a Cisplatin sensitization value of <0.02 μM are marked with “+++.”) |
| Nc1nn2cc(F)cnc2c1C(=O)Nc1cncc(F)c1N1CCN(C(=O)CN2CCC2)CC1 [I-N-160, 2-amino-N-(4-(4-(2-(azetidin-1-yl)acetyl)piperazin-1-yl)-5-fluoropyridin-3-yl)-6-fluoropyrazolo[1,5-a]pyrimidine-3-carboxamide] | +++ (Compounds with a Cisplatin sensitization value of <0.02 μM are marked with “+++.”) |
| Cc1ncn(-c2ccncc2NC(=O)c2c(N)nn3cc(F)cnc23)n1 [I-N-161, 2-amino-6-fluoro-N-(4-(3-methyl-1H-1,2,4-triazol-1-yl)pyridin-3-yl)pyrazolo[1,5-a]pyrimidine-3-carboxamide] | + (Compounds with a Cisplatin sensitization value >0.2 μM but <5 μM are marked with “+.”) |
| Cc1ncnn1-c1ccncc1NC(=O)c1c(N)nn2cc(F)cnc12 [I-N-162, 2-amino-6-fluoro-N-(4-(5-methyl-1H-1,2,4-triazol-1-yl)pyridin-3-yl)pyrazolo[1,5-a]pyrimidine-3-carboxamide] | ++ (Compounds with a Cisplatin sensitization value >0.02 μM but <0.2 μM are marked with “++.”) |
| Nc1nn2cc(F)cnc2c1C(=O)Nc1cncc(F)c1N1CCN2C(=O)CCC2C1 (stereo not shown) [I-N-163, 2-amino-6-fluoro-N-(5-fluoro-4-(6-oxohexahydropyrrolo[1,2-a]pyrazin-2(1H)-yl)pyridin-3-yl)pyrazolo[1,5-a]pyrimidine-3-carboxamide] | +++ (Compounds with a Cisplatin sensitization value of <0.02 μM are marked with “+++.”) |
| CN1CC(OC2CCN(c3ccncc3NC(=O)c3c(N)nn4cc(F)cnc34)CC2)C1 [I-N-164, 2-amino-6-fluoro-N-(4-(4-((1-methylazetidin-3-yl)oxy)piperidin-1-yl)pyridin-3-yl)pyrazolo[1,5-a]pyrimidine-3-carboxamide] | +++ (Compounds with a Cisplatin sensitization value of <0.02 μM are marked with “+++.”) |
| CS(=O)(=O)C1CCN(c2c(F)cncc2NC(=O)c2c(N)nn3cc(F)cnc23)CC1 [I-N-165, 2-amino-6-fluoro-N-(5-fluoro-4-(4-(methylsulfonyl)piperidin-1-yl)pyridin-3-yl)pyrazolo[1,5-a]pyrimidine-3-carboxamide] | +++ (Compounds with a Cisplatin sensitization value of <0.02 μM are marked with “+++.”) |
| CN1CCN(S(=O)(=O)C2CCN(c3c(F)cncc3NC(=O)c3c(N)nn4cc(F)cnc34)CC2)CC1 [I-N-166, 2-amino-6-fluoro-N-(5-fluoro-4-(4-((4-methylpiperazin-1-yl)sulfonyl)piperidin-1-yl)pyridin-3-yl)pyrazolo[1,5-a]pyrimidine-3-carboxamide] | +++ (Compounds with a Cisplatin sensitization value of <0.02 μM are marked with “+++.”) |
| Nc1nn2cc(F)cnc2c1C(=O)Nc1cncc(F)c1N1CCC(OCCN2CCCC2)CC1 [I-N-167, 2-amino-6-fluoro-N-(5-fluoro-4-(4-(2-(pyrrolidin-1-yl)ethoxy)piperidin-1-yl)pyridin-3-yl)pyrazolo[1,5-a]pyrimidine-3-carboxamide] | +++ (Compounds with a Cisplatin sensitization value of <0.02 μM are marked with “+++.”) |
| Nc1nn2cc(F)cnc2c1C(=O)Nc1cncc(F)c1N1CCN(C(=O)C2CNC2)CC1 [I-N-168, 2-amino-N-(4-(4-(azetidine-3-carbonyl)piperazin-1-yl)-5-fluoropyridin-3-yl)-6-fluoropyrazolo[1,5-a]pyrimidine-3-carboxamide] | + (Compounds with a Cisplatin sensitization value >0.2 μM but <5 μM are marked with “+.”) |
| Nc1nn2cc(F)cnc2c1C(=O)Nc1cncc(F)c1N1CCC(S(=O)(=O)N2CCC2)CC1 [I-N-169, 2-amino-N-(4-(4-(azetidin-1-ylsulfonyl)piperidin-1-yl)-5-fluoropyridin-3-yl)-6-fluoropyrazolo[1,5-a]pyrimidine-3-carboxamide] | +++ (Compounds with a Cisplatin sensitization value of <0.02 μM are marked with “+++.”) |
| Nc1nn2cc(F)cnc2c1C(=O)Nc1cnccc1N1CCC(S(=O)(=O)N2CCOCC2)CC1 [I-N-170, 2-amino-6-fluoro-N-(4-(4-(morpholinosulfonyl)piperidin-1-yl)pyridin-3-yl)pyrazolo[1,5-a]pyrimidine-3-carboxamide] | +++ (Compounds with a Cisplatin sensitization value of <0.02 μM are marked with “+++.”) |
| CN1CCN(CC2CCN(c3c(F)cncc3NC(=O)c3c(N)nn4cc(F)cnc34)CC2)CC1=O [I-N-171, 2-amino-6-fluoro-N-(5-fluoro-4-(4-((4-methyl-3-oxopiperazin-1-yl)methyl)piperidin-1-yl)pyridin-3-yl)pyrazolo[1,5-a]pyrimidine-3-carboxamide] | +++ (Compounds with a Cisplatin sensitization value of <0.02 μM are marked with “+++.”) |
| Nc1nn2cc(F)cnc2c1C(=O)Nc1cncc(F)c1N1CCN(C(=O)C2CNCCO2)CC1 (stereo not shown) [I-N-172, 2-amino-6-fluoro-N-(5-fluoro-4-(4-(morpholine-2-carbonyl)piperazin-1-yl)pyridin-3-yl)pyrazolo[1,5-a]pyrimidine-3-carboxamide] | +++ (Compounds with a Cisplatin sensitization value of <0.02 μM are marked with “+++.”) |
| CN1CCCCC1C(=O)N1CCN(c2c(F)cncc2NC(=O)c2c(N)nn3cc(F)cnc23)CC1 (stereo not shown) [I-N-173, 2-amino-6-fluoro-N-(5-fluoro-4-(4-(1-methylpiperidine-2-carbonyl)piperazin-1-yl)pyridin-3-yl)pyrazolo[1,5-a]pyrimidine-3-carboxamide] | +++ (Compounds with a Cisplatin sensitization value of <0.02 μM are marked with “+++.”) |
| CN1CCOC(C(=O)N2CCN(c3c(F)cncc3NC(=O)c3c(N)nn4cc(F)cnc34)CC2)C1 (stereo not shown) [I-N-174, 2-amino-6-fluoro-N-(5-fluoro-4-(4-(4-methylmorpholine-2-carbonyl)piperazin-1-yl)pyridin-3-yl)pyrazolo[1,5-a]pyrimidine-3-carboxamide] | +++ (Compounds with a Cisplatin sensitization value of <0.02 μM are marked with “+++.”) |
| CN1CCC(S(=O)(=O)N2CCN(c3c(F)cncc3NC(=O)c3c(N)nn4cc(F)cnc34)CC2)CC1 [I-N-175, 2-amino-6-fluoro-N-(5-fluoro-4-(4-((1-methylpiperidin-4-yl)sulfonyl)piperazin-1-yl)pyridin-3-yl)pyrazolo[1,5-a]pyrimidine-3-carboxamide] | +++ (Compounds with a Cisplatin sensitization value of <0.02 μM are marked with “+++.”) |
| Nc1nn2cc(F)cnc2c1C(=O)Nc1cnccc1N1CCN(S(=O)(=O)C2CC2)CC1 [I-N-176, 2-amino-N-(4-(4-(cyclopropylsulfonyl)piperazin-1-yl)pyridin-3-yl)-6-fluoropyrazolo[1,5-a]pyrimidine-3-carboxamide] | +++ (Compounds with a Cisplatin sensitization value of <0.02 μM are marked with “+++.”) |
| Nc1nn2cc(F)cnc2c1C(=O)Nc1cnccc1N1CCN(S(=O)(=O)C2CCOCC2)CC1 [I-N-177, 2-amino-6-fluoro-N-(4-(4-((tetrahydro-2H-pyran-4-yl)sulfonyl)piperazin-1-yl)pyridin-3-yl)pyrazolo[1,5-a]pyrimidine-3-carboxamide] | +++ (Compounds with a Cisplatin sensitization value of <0.02 μM are marked with “+++.”) |
| CS(=O)(=O)N1CCN(c2ccncc2NC(=O)c2c(N)nn3cc(F)cnc23)CC1 [I-N-178, 2-amino-6-fluoro-N-(4-(4-(methylsulfonyl)piperazin-1-yl)pyridin-3-yl)pyrazolo[1,5-a]pyrimidine-3-carboxamide] | +++ (Compounds with a Cisplatin sensitization value of <0.02 μM are marked with “+++.”) |
| Nc1nn2cc(F)cnc2c1C(=O)Nc1cnccc1N1CCN(S(=O)(=O)C2CCOC2)CC1 (stereo not shown) [I-N-179, 2-amino-6-fluoro-N-(4-(4-((tetrahydrofuran-3-yl)sulfonyl)piperazin-1-yl)pyridin-3-yl)pyrazolo[1,5-a]pyrimidine-3-carboxamide] | +++ (Compounds with a Cisplatin sensitization value of <0.02 μM are marked with “+++.”) |

— patent US10787452B2 (Vertex Pharmaceuticals Incorporated, priority 2012, dated 2020)
